Source: US12497365B2, “4-pyridinyl formamide compound or derivative thereof, preparation method therefor, herbicidal composition and use thereof” (Qingdao Kingagroot Chemical Compound Co., Ltd., priority 2019, dated 2025)

Key:
Assay in all cases: Weeding effect in post-emergence stage
Assay type in all cases: in vivo
Conditions in all cases: active ingredient 2000 g/ha, 3 weeks after application, fresh weight control rate
Abutilon theophrasti = system: Abutilon theophrasti
In short: (§1)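 Pot-grown weeds at the 2-3 leaf stage receive a tower spray of test compound at 2000, 1000, 500, 250 or 125 g/ha, formulated in acetone with Tween 80 and methyl oleate synergist. Fresh weight reduction is rated on an activity scale 3 weeks later.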

Chenopodium album = system: Chenopodium album
In short: as §1

[1] = system: Amaranthus retroflexus L.
In short: as §1

Descurainia sophia = system: Descurainia sophia
In short: as §1

Row | Structure (SMILES) | Weeding effect, activity level (growth control rate), Abutilon theophrasti (Abutilon theophrasti) | Weeding effect, activity level (growth control rate), Chenopodium album (Chenopodium album) | Weeding effect, activity level (growth control rate), Amaranthus retroflexus L. [1] | Weeding effect, activity level (growth control rate), Descurainia sophia (Descurainia sophia)
1 | Cn1nnnc1NC(=O)c1ccnc(-c2ccc(-c3ccccc3)cc2)c1Cl [Compound 1-53] | 5 (Level 5: growth control rate is above 85%) | 5 (Level 5: growth control rate is above 85%) | 5 (Level 5: growth control rate is above 85%) | 5 (Level 5: growth control rate is above 85%)
2 | CCc1ccc(-c2ccc(-c3nccc(C(=O)Nc4nnnn4C)c3Cl)cc2)cc1 [Compound 1-54] | 5 (Level 5: growth control rate is above 85%) | 5 (Level 5: growth control rate is above 85%) | 5 (Level 5: growth control rate is above 85%) | 5 (Level 5: growth control rate is above 85%)
3 | Cn1nnnc1NC(=O)c1ccnc(-c2cccc(OCc3ccccc3)c2)c1Cl [Compound 1-56] | 5 (Level 5: growth control rate is above 85%) | 5 (Level 5: growth control rate is above 85%) | 5 (Level 5: growth control rate is above 85%) | 5 (Level 5: growth control rate is above 85%)
4 | Cn1nnnc1NC(=O)c1ccnc(-c2ccccc2Oc2ccccc2)c1Cl [Compound 1-57] | 5 (Level 5: growth control rate is above 85%) | 5 (Level 5: growth control rate is above 85%) | 5 (Level 5: growth control rate is above 85%) | 5 (Level 5: growth control rate is above 85%)
5 | Cc1cccc(C)c1-c1nccc(C(=O)Nc2nnnn2C)c1Cl [Compound 1-58] | 5 (Level 5: growth control rate is above 85%) | 5 (Level 5: growth control rate is above 85%) | 5 (Level 5: growth control rate is above 85%) | 5 (Level 5: growth control rate is above 85%)
6 | Cc1ccc(-c2nccc(C(=O)Nc3nnnn3C)c2Cl)c(C)c1 [Compound 1-59] | 5 (Level 5: growth control rate is above 85%) | 5 (Level 5: growth control rate is above 85%) | 5 (Level 5: growth control rate is above 85%) | 5 (Level 5: growth control rate is above 85%)
7 | Cc1cc(C)cc(-c2nccc(C(=O)Nc3nnnn3C)c2Cl)c1 [Compound 1-60] | 5 (Level 5: growth control rate is above 85%) | 5 (Level 5: growth control rate is above 85%) | 5 (Level 5: growth control rate is above 85%) | 5 (Level 5: growth control rate is above 85%)
8 | Cn1nnnc1NC(=O)c1ccnc(-c2cc(C(C)(C)C)cc(C(C)(C)C)c2)c1Cl [Compound 1-61] | 5 (Level 5: growth control rate is above 85%) | 5 (Level 5: growth control rate is above 85%) | 5 (Level 5: growth control rate is above 85%) | 5 (Level 5: growth control rate is above 85%)
9 | Cn1nnnc1NC(=O)c1ccnc(-c2cccc(F)c2F)c1Cl [Compound 1-62] | 5 (Level 5: growth control rate is above 85%) | 5 (Level 5: growth control rate is above 85%) | 5 (Level 5: growth control rate is above 85%) | 5 (Level 5: growth control rate is above 85%)
10 | Cn1nnnc1NC(=O)c1ccnc(-c2cc(F)ccc2F)c1Cl [Compound 1-63] | 5 (Level 5: growth control rate is above 85%) | 5 (Level 5: growth control rate is above 85%) | 5 (Level 5: growth control rate is above 85%) | 5 (Level 5: growth control rate is above 85%)
11 | Cn1nnnc1NC(=O)c1ccnc(-c2ccc(F)cc2F)c1Cl [Compound 1-64] | 5 (Level 5: growth control rate is above 85%) | 5 (Level 5: growth control rate is above 85%) | 5 (Level 5: growth control rate is above 85%) | 5 (Level 5: growth control rate is above 85%)
12 | Cn1nnnc1NC(=O)c1ccnc(-c2cc(F)cc(F)c2)c1Cl [Compound 1-65] | 5 (Level 5: growth control rate is above 85%) | 5 (Level 5: growth control rate is above 85%) | 5 (Level 5: growth control rate is above 85%) | 5 (Level 5: growth control rate is above 85%)
13 | Cn1nnnc1NC(=O)c1ccnc(-c2ccc(F)c(F)c2)c1Cl [Compound 1-66] | 5 (Level 5: growth control rate is above 85%) | 5 (Level 5: growth control rate is above 85%) | 5 (Level 5: growth control rate is above 85%) | 5 (Level 5: growth control rate is above 85%)
14 | Cc1ccc(F)c(-c2nccc(C(=O)Nc3nnnn3C)c2Cl)c1 [Compound 1-67] | 5 (Level 5: growth control rate is above 85%) | 5 (Level 5: growth control rate is above 85%) | 5 (Level 5: growth control rate is above 85%) | 5 (Level 5: growth control rate is above 85%)
15 | Cc1ccc(-c2nccc(C(=O)Nc3nnnn3C)c2Cl)cc1F [Compound 1-68] | 5 (Level 5: growth control rate is above 85%) | 5 (Level 5: growth control rate is above 85%) | 5 (Level 5: growth control rate is above 85%) | 5 (Level 5: growth control rate is above 85%)
16 | Cc1ccc(-c2nccc(C(=O)Nc3nnnn3C)c2Cl)c(F)c1 [Compound 1-69] | 5 (Level 5: growth control rate is above 85%) | 5 (Level 5: growth control rate is above 85%) | 5 (Level 5: growth control rate is above 85%) | 5 (Level 5: growth control rate is above 85%)
